Results reported in PubChem BioAssay (NCI).
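Five concentrations, 48 hours, 96-well plates. At the TGI there is no net growth.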

How the values were obtained:
Assay in all cases: NCI tumour cell line growth inhibition, 48 h
786-0 renal = test system: 786-0 renal
A498 renal = test system: A498 renal
A549 NSCLC = test system: A549 NSCLC
ACHN renal = test system: ACHN renal
CAKI-1 renal = test system: CAKI-1 renal
CCRF-CEM leukemia = test system: CCRF-CEM leukemia
DLD-1 colon = test system: DLD-1 colon
DMS 114 small cell lung = test system: DMS 114 small cell lung
DMS 273 small cell lung = test system: DMS 273 small cell lung
EKVX NSCLC = test system: EKVX NSCLC
HCC-2998 colon = test system: HCC-2998 colon
HCT-15 colon = test system: HCT-15 colon
HL-60(TB) leukemia = test system: HL-60(TB) leukemia
HOP-18 NSCLC = test system: HOP-18 NSCLC
HOP-62 NSCLC = test system: HOP-62 NSCLC
HOP-92 NSCLC = test system: HOP-92 NSCLC
HT29 colon = test system: HT29 colon
IGROV1 ovarian = test system: IGROV1 ovarian
K-562 leukemia = test system: K-562 leukemia
KM12 colon = test system: KM12 colon
LOX IMVI melanoma = test system: LOX IMVI melanoma
M14 melanoma = test system: M14 melanoma
M19-MEL melanoma = test system: M19-MEL melanoma
MALME-3M melanoma = test system: MALME-3M melanoma
MOLT-4 leukemia = test system: MOLT-4 leukemia
NCI-H226 lung = test system: NCI-H226 lung
NCI-H23 lung = test system: NCI-H23 lung
NCI-H522 lung = test system: NCI-H522 lung
OVCAR-3 ovarian = test system: OVCAR-3 ovarian
OVCAR-4 ovarian = test system: OVCAR-4 ovarian
OVCAR-5 ovarian = test system: OVCAR-5 ovarian
OVCAR-8 ovarian = test system: OVCAR-8 ovarian
RPMI-8226 leukemia = test system: RPMI-8226 leukemia
RXF 393 renal = test system: RXF 393 renal
RXF-631 renal = test system: RXF-631 renal
SF-268 CNS = test system: SF-268 CNS
SF-295 CNS = test system: SF-295 CNS
SF-539 CNS = test system: SF-539 CNS
SK-MEL-2 melanoma = test system: SK-MEL-2 melanoma
SK-MEL-28 melanoma = test system: SK-MEL-28 melanoma
SK-MEL-5 melanoma = test system: SK-MEL-5 melanoma
SK-OV-3 ovarian = test system: SK-OV-3 ovarian
SN12C renal = test system: SN12C renal
SNB-75 CNS = test system: SNB-75 CNS
SNB-78 CNS = test system: SNB-78 CNS
SW-620 colon = test system: SW-620 colon
TK-10 renal = test system: TK-10 renal
U251 CNS = test system: U251 CNS
UACC-257 melanoma = test system: UACC-257 melanoma
UACC-62 melanoma = test system: UACC-62 melanoma
UO-31 renal = test system: UO-31 renal
XF 498 CNS = test system: XF 498 CNS
COLO 205 colon = test system: COLO 205 colon
HCT-116 colon = test system: HCT-116 colon
KM20L2 colon = test system: KM20L2 colon
MCF7 breast = test system: MCF7 breast
NCI-H460 lung = test system: NCI-H460 lung
NCI/ADR-RES ovarian = test system: NCI/ADR-RES ovarian
P388 leukemia = test system: P388 leukemia
P388/ADR leukemia = test system: P388/ADR leukemia
SN12K1 renal = test system: SN12K1 renal
SNB-19 CNS = test system: SNB-19 CNS

## CN(C)C(=S)/N=c1\ss/c(=N\S(=O)(=O)c2ccccc2)n1-c1ccccc1
786-0 renal
  TGI: > 100 µM
A498 renal
  TGI: > 100 µM
A549 NSCLC
  TGI: > 100 µM
ACHN renal
  TGI: > 100 µM
CAKI-1 renal
  TGI: > 100 µM
CCRF-CEM leukemia
  TGI: > 100 µM
DLD-1 colon
  TGI: > 100 µM
DMS 114 small cell lung
  TGI: 50.3 µM
DMS 273 small cell lung
  TGI: > 100 µM
EKVX NSCLC
  TGI: > 100 µM
HCC-2998 colon
  TGI: > 100 µM
HCT-15 colon
  TGI: > 100 µM
HL-60(TB) leukemia
  TGI: > 100 µM
HOP-18 NSCLC
  TGI: > 100 µM
HOP-62 NSCLC
  TGI: 98.3 µM
HOP-92 NSCLC
  TGI: 67 µM
HT29 colon
  TGI: > 100 µM
IGROV1 ovarian
  TGI: > 100 µM
K-562 leukemia
  TGI: > 100 µM
KM12 colon
  TGI: > 100 µM
LOX IMVI melanoma
  TGI: > 100 µM
M14 melanoma
  TGI: > 100 µM
M19-MEL melanoma
  TGI: > 100 µM
MALME-3M melanoma
  TGI: > 100 µM
MOLT-4 leukemia
  TGI: > 100 µM
NCI-H226 lung
  TGI: > 100 µM
NCI-H23 lung
  TGI: > 100 µM
NCI-H522 lung
  TGI: > 100 µM
OVCAR-3 ovarian
  TGI: > 100 µM
OVCAR-4 ovarian
  TGI: > 100 µM
OVCAR-5 ovarian
  TGI: > 100 µM
OVCAR-8 ovarian
  TGI: > 100 µM
RPMI-8226 leukemia
  TGI: > 100 µM
RXF 393 renal
  TGI: > 100 µM
RXF-631 renal
  TGI: > 100 µM
SF-268 CNS
  TGI: > 100 µM
SF-295 CNS
  TGI: > 100 µM
SF-539 CNS
  TGI: > 100 µM
SK-MEL-2 melanoma
  TGI: > 100 µM
SK-MEL-28 melanoma
  TGI: > 100 µM
SK-MEL-5 melanoma
  TGI: 78.3 µM
SK-OV-3 ovarian
  TGI: > 100 µM
SN12C renal
  TGI: > 100 µM
SNB-75 CNS
  TGI: > 100 µM
SNB-78 CNS
  TGI: > 100 µM
SW-620 colon
  TGI: > 100 µM
TK-10 renal
  TGI: > 100 µM
U251 CNS
  TGI: > 100 µM
UACC-257 melanoma
  TGI: > 100 µM
UACC-62 melanoma
  TGI: > 100 µM
UO-31 renal
  TGI: > 100 µM
XF 498 CNS
  TGI: 79.4 µM

## CCOC(=O)C(C)NC(=O)N(C)C12CC3CC(CC(C3)C1)C2 (centres undefined)
A498 renal
  TGI: 442 µM
A549 NSCLC
  TGI: > 500 µM
CAKI-1 renal
  TGI: > 404 µM
CCRF-CEM leukemia
  TGI: 430 µM
COLO 205 colon
  TGI: > 316 µM
DLD-1 colon
  TGI: > 79.3 µM
DMS 114 small cell lung
  TGI: 312 µM
DMS 273 small cell lung
  TGI: > 500 µM
EKVX NSCLC
  TGI: > 500 µM
HCC-2998 colon
  TGI: > 500 µM
HCT-116 colon
  TGI: > 500 µM
HCT-15 colon
  TGI: 490 µM
HL-60(TB) leukemia
  TGI: 272 µM
HOP-18 NSCLC
  TGI: > 500 µM
HOP-62 NSCLC
  TGI: > 422 µM
HOP-92 NSCLC
  TGI: 283 µM
HT29 colon
  TGI: > 500 µM
IGROV1 ovarian
  TGI: > 500 µM
K-562 leukemia
  TGI: > 500 µM
KM12 colon
  TGI: > 281 µM
KM20L2 colon
  TGI: > 500 µM
LOX IMVI melanoma
  TGI: 323 µM
M19-MEL melanoma
  TGI: > 452 µM
MALME-3M melanoma
  TGI: 497 µM
MCF7 breast
  TGI: 395 µM
MOLT-4 leukemia
  TGI: 420 µM
NCI-H226 lung
  TGI: 489 µM
NCI-H23 lung
  TGI: 441 µM
NCI-H460 lung
  TGI: > 442 µM
NCI-H522 lung
  TGI: > 451 µM
NCI/ADR-RES ovarian
  TGI: 424 µM
OVCAR-3 ovarian
  TGI: > 479 µM
OVCAR-4 ovarian
  TGI: > 472 µM
OVCAR-5 ovarian
  TGI: > 500 µM
OVCAR-8 ovarian
  TGI: > 500 µM
P388 leukemia
  TGI: 231 µM
P388/ADR leukemia
  TGI: > 409 µM
RPMI-8226 leukemia
  TGI: 422 µM
RXF 393 renal
  TGI: > 455 µM
SF-268 CNS
  TGI: > 500 µM
SF-295 CNS
  TGI: > 500 µM
SF-539 CNS
  TGI: > 500 µM
SK-MEL-2 melanoma
  TGI: > 316 µM
SK-MEL-28 melanoma
  TGI: > 500 µM
SK-MEL-5 melanoma
  TGI: 286 µM
SK-OV-3 ovarian
  TGI: 493 µM
SN12C renal
  TGI: > 500 µM
SN12K1 renal
  TGI: > 500 µM
SNB-19 CNS
  TGI: > 500 µM
SNB-75 CNS
  TGI: 227 µM
SNB-78 CNS
  TGI: > 500 µM
SW-620 colon
  TGI: 494 µM
U251 CNS
  TGI: > 500 µM
UACC-257 melanoma
  TGI: 406 µM
UACC-62 melanoma
  TGI: > 474 µM
UO-31 renal
  TGI: 492 µM
XF 498 CNS
  TGI: 453 µM
